Source: publication PMC11530130, “Peripherally restricted PICK1 inhibitor mPD5 ameliorates pain behaviors in murine inflammatory and neuropathic pain models” (JCI Insight, 2024)
Values joined by “and” are separate entries in the source; they are usually repeats but may differ in a detail not shown here. Equal values may be shown once.

Key:
[1] = system: mice, CFA model of inflammatory pain; assay: CFA model of inflammatory pain, von Frey, i.t. administration; assay type: in vivo, mouse; details: CFA day 2, i.t. 20 μM, 7 μL
Procedure: Unless otherwise specified, wild type C57BL/6NRj mice (male and female, aged eight-weeks at the beginning of experiment) were used (Janvier, France). Animals were allowed at least seven days of habituation to the animal facility before initiation of experiment. Mice were group-housed in a temperature-controlled room, maintained on a 12/12hour light/dark cycle (lights on at 6 A.M) with free access to standard rodent chow (Altromin 1342 (Brogaarden, […]
Drug administration and dosing for animal experiments.
All compounds were diluted in PBS or saline (depending on control) and administered through different routes i.t. (7 μL/mouse)), i.p. (10 μL/g) or s.c. (10 μL/g)) as indicated. Doses of mPD5 were based on previous studies with TPD5 (6) with a subcutaneous dose-range included in the CFA studies further guiding dose selection for SNI, STZ and CIBP studies. Pregabalin dose was chosen based on previous experience from Phenotype Expertise (Marseilles, France). In the CIBP model, a dose of […] morphine was chosen to avoid hyperactivity, though known to provide only partial pain relief in this model. In remaining experiments, 5 mg/kg morphine was chosen, known to provide full pain relief, except for the conditioned place preference experiment, where 10 mg/kg was used instead in accordance with literature. […]

[2] = system: mice, spared nerve injury (SNI) model; assay: SNI model 18 weeks after surgery, von Frey, sustained s.c. administration; assay type: in vivo, mouse; set-up: von Frey threshold, Fig 7C, individual mice: unit not given here; details: for duration of effect on mechanical hypersensitivity: SNI 18 weeks after surgery
Procedure: Repeated and sustained administration of mPD5 in the SNI model. […]
For the first experiment with sustained administration of mPD5 (Figure 7C), the mice underwent a baseline von Frey reading as described in the “Mechanically-evoked pain (von Frey).”-section and SNI surgery as described in “Induction of neuropathic pain (SNI model).”-section. Approximately 18 weeks (125 days) after SNI surgery, hyperalgesia was confirmed with von Frey. On the same day, mice were injected s.c. with 10 μmol/kg mPD5 and evoked pain was tested again at 1 hour after injection. Then, mice were injected s.c. with either 2+2+2 μmol/kg mPD5 (group A) or PBS (group B) once an hour for 3 hours. At 4,5 hours after the 10 μmol/kg mPD5 injection paw withdrawal threshold was measured again followed by a s.c. injection of 2 μmol/kg mPD5 in all animals. The PWT was measured again at 6 hours +7 hours + 8 hours + 9 hours + 10 hours + 11 hours + 22 hours + 23 hours + 25 hours + 27 hours + 49 hours + 121 hours after the initial 10 μmol/kg mPD5 injection performed on day 125. […]

CCCCCCCCCCCCCC(=O)N(CCOCCOCCC(=O)N[C@@H](Cc1c[nH]cn1)C(=O)N[C@@H](Cc1c[nH]c2ccccc12)C(=O)N[C@@H](CC(C)C)C(=O)N[C@@H](CCCCN)C(=O)N[C@H](C(=O)O)C(C)C)CCOCCOCCC(=O)N[C@@H](Cc1c[nH]cn1)C(=O)N[C@@H](Cc1c[nH]c2ccccc12)C(=O)N[C@@H](CC(C)C)C(=O)N[C@@H](CCCCN)C(=O)N[C@H](C(=O)O)C(C)C [mPD5, myristoyl-NPEG4-(HWLKV)2]
effect on mechanical hypersensitivity (PWT) ([1]; 1 hour and 5 hours after administration): significant relief of mechanical hypersensitivity | effect on mechanical hypersensitivity (PWT) ([1]; 24 hours after administration): no effect | von Frey threshold, contralateral paw, Fig 7C, individual mice ([2]; A-contra, time 9 post første inj og time 4 post sidste inj): 1.4 (3×) and 1 (5×) | von Frey threshold, contralateral paw, Fig 7C, individual mice ([2]; A-contra, time 10 post første inj og time 5 post sidste inj): 1 (4×) and 1.4 (3×) and 0.6 | von Frey threshold, contralateral paw, Fig 7C, individual mice ([2]; A-contra, time 11 post første inj og time 6 post sidste inj): 1.4 (2×) and 2 (2×) and 1 (4×) | von Frey threshold, contralateral paw, Fig 7C, individual mice ([2]; A-contra, time 22 post første inj og time 17 post sidste inj): 1.4 (4×) and 0.6 and 1 (3×) | von Frey threshold, contralateral paw, Fig 7C, individual mice ([2]; A-contra, time 23 post første inj og time 18 post sidste inj): 1.4 (6×) and 0.6 and 1 | von Frey threshold, contralateral paw, Fig 7C, individual mice ([2]; A-contra, time 25 post første inj og time 20 post sidste inj): 1 (7×) and 1.4 | von Frey threshold, contralateral paw, Fig 7C, individual mice ([2]; A-contra, time 27 post første inj og time 22 post sidste inj): 1.4 (3×) and 1 | von Frey threshold, contralateral paw, Fig 7C, individual mice ([2]; B-contra, time 9 post første inj og time 4 post sidste inj): 1 (4×) and 1.4 (3×) and 2 | von Frey threshold, contralateral paw, Fig 7C, individual mice ([2]; B-contra, time 10 post første inj og time 5 post sidste inj): 1.4 (4×) and 2 (2×) and 1 (2×) | von Frey threshold, contralateral paw, Fig 7C, individual mice ([2]; B-contra, time 11 post første inj og time 6 post sidste inj): 1 (2×) and 2 (2×) and 1.4 (4×) | von Frey threshold, contralateral paw, Fig 7C, individual mice ([2]; B-contra, time 22 post første inj og time 17 post sidste inj): 1.4 (3×) and 1 (2×) and 2 (3×) | von Frey threshold, contralateral paw, Fig 7C, individual mice ([2]; B-contra, time 23 post første inj og time 18 post sidste inj): 1 (2×) and 2 (3×) and 1.4 (2×) and 0.6 | von Frey threshold, contralateral paw, Fig 7C, individual mice ([2]; B-contra, time 25 post første inj og time 20 post sidste inj): 1.4 (5×) and 1 and 2 and 0.6 | duration of effect on mechanical hypersensitivity ([2]; 10 + 2 + 2 + 2 + 2 μmol/kg s.c., 1 hour between injections (Group A), from first injection): 25 h | duration of effect on mechanical hypersensitivity ([2]; without consecutive administration (reference, 10 + 0 + 0 + 0 + 2 μmol/kg)): 1 h | von Frey threshold, Fig 7C, individual mice ([2]; group A, time 9 post første inj og time 4 post sidste inj): 2 and 1.4 and 0.6 and 0.4 (2×) and 1 (3×) | von Frey threshold, Fig 7C, individual mice ([2]; group A, time 10 post første inj og time 5 post sidste inj): 1.4 (2×) and 2 and 0.4 (3×) and 0.6 and 1 | von Frey threshold, Fig 7C, individual mice ([2]; group A, time 11 post første inj og time 6 post sidste inj): 1.4 and 1 (3×) and 0.16 and 0.4 and 0.6 (2×) | von Frey threshold, Fig 7C, individual mice ([2]; group A, time 22 post første inj og time 17 post sidste inj): 0.6 (2×) and 1 (2×) and 0.16 (2×) and 0.4 and 1.4 | von Frey threshold, Fig 7C, individual mice ([2]; group A, time 23 post første inj og time 18 post sidste inj): 1.4 and 0.6 (2×) and 0.16 and 0.07 (2×) and 1 and 0.4 | von Frey threshold, Fig 7C, individual mice ([2]; group A, time 25 post første inj og time 20 post sidste inj): 0.16 (2×) and 2 and 0.6 (3×) and 0.4 and 1.4 | von Frey threshold, Fig 7C, individual mice ([2]; group A, time 27 post første inj og time 22 post sidste inj): 0.4 | von Frey threshold, Fig 7C, individual mice ([2]; group B, time 9 post første inj og time 4 post sidste inj): 1 and 0.4 (3×) and 0.07 (2×) and 0.6 and 0.16 | von Frey threshold, Fig 7C, individual mice ([2]; group B, time 10 post første inj og time 5 post sidste inj): 0.4 (3×) and 0.16 (2×) and 0.07 (3×) | von Frey threshold, Fig 7C, individual mice ([2]; group B, time 11 post første inj og time 6 post sidste inj): 0.4 (2×) and 0.16 (3×) and 0.07 (3×) | von Frey threshold, Fig 7C, individual mice ([2]; group B, time 22 post første inj og time 17 post sidste inj): 0.16 (5×) and 0.07 (3×) | von Frey threshold, Fig 7C, individual mice ([2]; group B, time 23 post første inj og time 18 post sidste inj): 0.16 (3×) and 0.4 (2×) and 0.07 (3×) | von Frey threshold, Fig 7C, individual mice ([2]; group B, time 25 post første inj og time 20 post sidste inj): 0.6 and 0.16 (4×) and 0.4 and 0.07 (2×) | von Frey threshold, Fig 7C, individual mice ([2]; group B, time 27 post første inj og time 22 post sidste inj): 0.6 and 0.07 and 0.16
